Measured values from US9708314B2, “Heterocyclic amide compound” (NISSAN CHEMICAL INDUSTRIES, LTD., priority 2013, dated 2017).

How the values were obtained:
Assay type in all cases: in vivo
[1] = tested on: directly sowed Oryza sativa; experiment: Test Example 3: effect on crop by application to foliage (Wagner pot, water depth 0.1-0.5 cm); conditions: Nineteenth Table
Method in brief: (§1)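 A small sprayer delivered the diluted emulsion uniformly to foliage at the chosen rate in g/ha, 14 days after sowing in Wagner pots held at 25–30 °C. Outcome: 0–5 herbicidal-ratio score read three weeks post-treatment.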

[2] = tested on: Stellaria media; experiment: Test Example 4: herbicidal effect by application to foliage (diluvial soil, plastic box); conditions: application to foliage, application herbicide amount 320 g/ha
Method in brief: (§2)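 Emulsion-formulated compound, diluted to a predetermined g/ha dose, applied by small sprayer to leaves and stems of 14-day-old seedlings grown in sterilized diluvial soil. Effect rated on 0–5 herbicidal-ratio scale three weeks on.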

[3] = tested on: Amaranthus retroflexus; experiment: as above; conditions: application to foliage, application herbicide amount 320 g/ha
Method in brief: as §2

[4] = tested on: Echinochloa oryzacola Vasing.; experiment: Test Example 2: herbicidal activity, application during weed generation in submerged conditions; conditions: Eighteenth Table; application herbicide amount 320 g/ha
Method in brief: (§3)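 Post-emergence application under submerged conditions: water-diluted emulsion dosed onto the water surface (g/ha) when weeds reach one- to two-leaf stage. Soil flooded to 4 cm; greenhouse 25–30 °C. Herbicidal ratio graded in six classes, 0 (≤5%) to 5 (≥90%), at three weeks.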

[5] = tested on: Scirpus juncoides; experiment: as above; conditions: Eighteenth Table; application herbicide amount 320 g/ha
Method in brief: as §3

[6] = tested on: Monochoria vaginalis; experiment: as above; conditions: Eighteenth Table; application herbicide amount 320 g/ha
Method in brief: as §3

[7] = tested on: Echinochloa crus-galli var. crus-galli; experiment: Test Example 3: herbicidal effect by application to foliage (Wagner pot, water depth 0.1-0.5 cm); conditions: Nineteenth Table
Method in brief: as §1

[8] = tested on: Cyperus difformis; experiment: as above; conditions: Nineteenth Table; application herbicide amount 320 g/ha
Method in brief: as §1

[9] = tested on: Leptochloa chinensis; experiment: as above; conditions: Nineteenth Table
Method in brief: as §1

[10] = application herbicide amount 320 g/ha
[11] = application herbicide amount 400 g/ha

Row | SMILES | b (directly sowed Oryza sativa) effect on crop grade [1, 10] | P (Stellaria media) herbicidal effect [2] | N (Amaranthus retroflexus) herbicidal effect [3] | A (Echinochloa oryzicola Vasing.) herbicidal ratio grade [4] | B (Scirpus juncoides) herbicidal ratio grade [5] | C (Monochoria vaginalis) herbicidal ratio grade [6] | H (Echinochloa crus-galli var. crus-galli) herbicidal ratio grade [7, 10] | E (Cyperus difformis) herbicidal ratio grade [8] | D (Leptochloa chinensis) herbicidal ratio grade [9, 10] | b (directly sowed Oryza sativa) effect on crop grade [1, 11] | H (Echinochloa crus-galli var. crus-galli) herbicidal ratio grade [7, 11] | D (Leptochloa chinensis) herbicidal ratio grade [9, 11]
1 | CC(C)c1nnc2c(C(=O)Nc3nnc(C4CC4)o3)ccc(C(F)(F)F)n12 [1-051] | 0 (Herbicidal ratio of 5% or less (almost no effect)) | 3 (Herbicidal ratio of 40% or more and less than 70%) | 3 (Herbicidal ratio of 40% or more and less than 70%) | 4 (Herbicidal ratio of 70% or more and less than 90%) | 3 (Herbicidal ratio of 40% or more and less than 70%) | 4 (Herbicidal ratio of 70% or more and less than 90%) | 4 (Herbicidal ratio of 70% or more and less than 90%) | 4 (Herbicidal ratio of 70% or more and less than 90%) | 5 (Herbicidal ratio of 90% or more (almost completely withered)) | – | – | –
2 | CSCc1nnc2c(C(=O)Nc3nnc(C)o3)ccc(C(F)(F)F)n12 [1-030] | 4 (Herbicidal ratio of 70% or more and less than 90%) | 5 (Herbicidal ratio of 90% or more (almost completely withered)) | 5 (Herbicidal ratio of 90% or more (almost completely withered)) | 4 (Herbicidal ratio of 70% or more and less than 90%) | 3 (Herbicidal ratio of 40% or more and less than 70%) | 3 (Herbicidal ratio of 40% or more and less than 70%) | 5 (Herbicidal ratio of 90% or more (almost completely withered)) | 5 (Herbicidal ratio of 90% or more (almost completely withered)) | 5 (Herbicidal ratio of 90% or more (almost completely withered)) | – | – | –
3 | COCCOCc1nnc2c(C(=O)Nc3nnc(C)o3)ccc(C(F)(F)F)n12 [1-019] | 4 (Herbicidal ratio of 70% or more and less than 90%) | 5 (Herbicidal ratio of 90% or more (almost completely withered)) | 5 (Herbicidal ratio of 90% or more (almost completely withered)) | 4 (Herbicidal ratio of 70% or more and less than 90%) | 3 (Herbicidal ratio of 40% or more and less than 70%) | 3 (Herbicidal ratio of 40% or more and less than 70%) | 5 (Herbicidal ratio of 90% or more (almost completely withered)) | 5 (Herbicidal ratio of 90% or more (almost completely withered)) | 5 (Herbicidal ratio of 90% or more (almost completely withered)) | – | – | –
4 | CCOC(=O)Cc1nnc2c(C(=O)Nc3nnc(C)o3)ccc(C(F)(F)F)n12 [1-042] | 1 (Herbicidal ratio of 5% or more and less than 20%) | 4 (Herbicidal ratio of 70% or more and less than 90%) | 4 (Herbicidal ratio of 70% or more and less than 90%) | 1 (Herbicidal ratio of 5% or more and less than 20%) | 2 (Herbicidal ratio of 20% or more and less than 40%) | 3 (Herbicidal ratio of 40% or more and less than 70%) | 5 (Herbicidal ratio of 90% or more (almost completely withered)) | 4 (Herbicidal ratio of 70% or more and less than 90%) | – | – | – | –
5 | Cc1nnc(NC(=O)c2ccc(C(F)(F)F)n3c(CS(C)(=O)=O)nnc23)o1 [1-037] | 2 (Herbicidal ratio of 20% or more and less than 40%) | 4 (Herbicidal ratio of 70% or more and less than 90%) | 5 (Herbicidal ratio of 90% or more (almost completely withered)) | 2 (Herbicidal ratio of 20% or more and less than 40%) | 2 (Herbicidal ratio of 20% or more and less than 40%) | – | 5 (Herbicidal ratio of 90% or more (almost completely withered)) | 5 (Herbicidal ratio of 90% or more (almost completely withered)) | 5 (Herbicidal ratio of 90% or more (almost completely withered)) | – | – | –
6 | Cc1nnc(NC(=O)c2ccc(C(F)(F)F)n3c(C)nnc23)o1 [1-002] | – | 5 (Herbicidal ratio of 90% or more (almost completely withered)) | 3 (Herbicidal ratio of 40% or more and less than 70%) | 3 (Herbicidal ratio of 40% or more and less than 70%) | 0 (Herbicidal ratio of 5% or less (almost no effect)) | 0 (Herbicidal ratio of 5% or less (almost no effect)) | – | – | – | 0 (Herbicidal ratio of 5% or less (almost no effect)) | 4 (Herbicidal ratio of 70% or more and less than 90%) | 4 (Herbicidal ratio of 70% or more and less than 90%)
7 | Cc1nnc(NC(=O)c2ccc(C(F)(F)F)n3c(-c4ccccc4)nnc23)o1 [1-012] | – | 4 (Herbicidal ratio of 70% or more and less than 90%) | 3 (Herbicidal ratio of 40% or more and less than 70%) | 2 (Herbicidal ratio of 20% or more and less than 40%) | 2 (Herbicidal ratio of 20% or more and less than 40%) | 2 (Herbicidal ratio of 20% or more and less than 40%) | – | – | – | 0 (Herbicidal ratio of 5% or less (almost no effect)) | 3 (Herbicidal ratio of 40% or more and less than 70%) | 5 (Herbicidal ratio of 90% or more (almost completely withered))
